Assays:
Assay type in all cases: cell-based, human
ABCA1 = assay: Increase of ABCA1 in THP-1 cell (membrane fraction, SDS-PAGE and immunoblotting); conditions: PMA-differentiated THP-1 macrophages, 24 h culture with compound; relative to cells treated with probucol spiroquinone (=100)
Protocol: THP-1 cells (human leukemia cell; manufactured by American Type Culture Collection) were cultured for 24 hours in 10% FBS-RPMI1640 culture medium (manufactured by Sigma) in the presence of PMA (phorbol myristate acetate; 3.2×10^−7 M; manufactured by Wako Pure Chemical Industries, Ltd.) to obtain differentiated macrophages. The resulting cells were washed with RPMI1640 (manufactured by Sigma) and then added to RPMI1640 culture medium (manufactured by Sigma) with BSA (manufactured by Sigma) having a concentration of 0.2%. The spiroquinone derivatives obtained in Examples 1, 6 and 10 was independently added to the culture medium. Each sample was cultured for 24 hours in the presence or absence of apoAI, and then the ABCA1 expression in the cells was assayed in accordance with the following method. Incidentally, the spiroquinone derivative was dissolved in 2-butabol, and the solution was added to the culture medium so that the final concentration of the spiroquinone derivative was 0.5%.
The cells were washed with PBS (phosphate buffered saline; manufactured by Sigma). The washed cells were collected in 0.5 mM Tris-HCl (pH 8.5) containing a protease inhibitor (manufactured by Sigma), stirred, and allowed to stand on ice for 15 minutes. The resulting cell suspension was centrifuged at 470×g for 5 minutes to precipitate nuclear fractions. Thereafter, the supernatant was centrifuged at 316,000×g for 30 minutes to precipitate membrane fractions. The membrane fractions (15 μg protein) were used to conduct SDS-PAGE and Immunoblotting. The obtained band of the ABCA1 protein was converted into digital data by using an image analysis software (manufactured by […], Photoshop). The relative ratio (%) of the ABCA1 expression level of the cells treated with the spiroquinone derivative to that of the cells treated with probucol spiroquinone was calculated to evaluate the ABCA1 expression activity of the test compounds.

THP-1 cells = assay: Acceleration of HDL production reaction (apoA-I-dependent cholesterol release into culture medium); conditions: for apoA-1-dependent HDL cholesterol release, increase as compared with probucol spiroquinone: THP-1 cells, fold versus cells treated with probucol spiroquinone; for HDL cholesterol release (relative ratio %): THP-1 macrophages, culture medium after 24 h culture, apoA-I-dependent, relative to cells treated with probucol spiroquinone (=100)
Protocol: The culture medium after 24-hour culture in the presence or absence of apoAI in Test Example 1 was used to examine cholesterol release into the culture medium by the apoA-1-dependent HDL-generating reaction.
Specifically, the culture medium was collected in a 1.5 ml tube and centrifuged at 316,000×g for 5 minutes, and the supernatant was transferred in a glass tube. To the supernatant was added a mixture of chloroform and methanol (volume ratio=2/1) (manufactured by Wako Pure Chemical Industries, Ltd.). The resulting mixture was stirred and further centrifuged at 1,300×g for 5 minutes. After the centrifugation, the resulting water layer was removed. Water was added to the remaining organic layer, and the mixture was stirred again and centrifuged at 1,300×g for 5 minutes. After the centrifugation, the resulting water layer was removed. The organic layer was evaporated to dryness, and cholesterol remaining in the glass tube was quantitatively determined according to an enzymatic method. The relative ratio (%) of the amount of cholesterol release as HDL from the cells treated with the spiroquinone derivative to that from the cells treated with probucol spiroquinone was calculated to evaluate the HDL cholesterol release from the cells treated with the test compounds.

ABCA1 mRNA = assay: mRNA expression of intracellular ABCA1 (Real Time PCR); conditions: for mRNA Expression level of ABCA1 (relative ratio %): THP-1 macrophages, standardized to GAPDH mRNA, relative to untreated cells (=100)
Protocol: The cells washed with PBS in Test Example 1 were used. From the cells, RNA was extracted with ISOGEN (manufactured by Wako Pure Chemical Industries, Ltd.). By using a Super Script First-Strand Synthesis System for RT-PCR (manufactured by Invitrogen) cDNA was prepared, and the mRNA expression of ABCA1 was assayed by Real Time PCR using ABCA1 specific primer and Power SYBR Green PCR Master Mix (manufactured by Applied Biosystems).
Moreover, the mRNA expression of GAPDH as an internal control was also assayed simultaneously. The mRNA expression level of ABCA1 was standardized as a ratio (%) relative to the mRNA expression level of GAPDH. The mRNA expression level of ABCA1 in the cells treated with the test compound relative to that in untreated cells was calculated and evaluated.

## CC1(CCC(=O)O)SC2(C=C(C(C)(C)C)C(=O)C(C(C)(C)C)=C2)C2(C=C(C(C)(C)C)C(=O)C(C(C)(C)C)=C2)S1 [Example 1, 14-carboxyethyl-14-methyl-2,4,9,11-tetrakis(t-butyl)-13,15-dithiadispiro[5.0.5.3]pentadeca-1,4,8,11-tetraene-3,10-dione]
ABCA1
  ABCA1 expression level (relative ratio %): 238%

## CC(C)(C)C1=CC2(C=C(C(C)(C)C)C1=O)SC1(CCCC1)SC21C=C(C(C)(C)C)C(=O)C(C(C)(C)C)=C1 [Example 10, 9,11,15,17-tetrakis(t-butyl)-6,19-dithiadispiro[4.1.5^7.0.5^13.1^5]nonadeca-8,11,14,17-tetraene-10,16-dione]
ABCA1
  ABCA1 expression level (relative ratio %): 309%
THP-1 cells
  apoA-1-dependent HDL cholesterol release, increase as compared with probucol spiroquinone: about 1.3 times
  HDL cholesterol release (relative ratio %): 128%

## CCCC1(C)SC2(C=C(C(C)(C)C)C(=O)C(C(C)(C)C)=C2)C2(C=C(C(C)(C)C)C(=O)C(C(C)(C)C)=C2)S1 [Example 6, 14-methyl-2,4,9,11-tetrakis(t-butyl)-14-n-propyl-13,15-dithiadispiro[5.0.5.3]pentadeca-1,4,8,11-tetraene-3,10-dione]
ABCA1 mRNA; THP-1 cells
  mRNA expression of ABCA1 in treated THP-1 cells (in words): not found
ABCA1 mRNA
  mRNA Expression level of ABCA1 (relative ratio %): 51%
ABCA1
  ABCA1 expression level (relative ratio %): 176%
THP-1 cells
  apoA-1-dependent HDL cholesterol release, increase as compared with probucol spiroquinone: about 1.3 times
  HDL cholesterol release (relative ratio %): 134%

## CC1(C)SC2(C=C(C(C)(C)C)C(=O)C(C(C)(C)C)=C2)C2(C=C(C(C)(C)C)C(=O)C(C(C)(C)C)=C2)S1 [Probucol spiroquinone, reference compound]
ABCA1 mRNA
  mRNA Expression level of ABCA1 (relative ratio %): 65%
ABCA1
  ABCA1 expression level (relative ratio %): 100%
THP-1 cells
  HDL cholesterol release (relative ratio %): 100%

Source: patent US8119686B2, “Spiroquinone compound and pharmaceutical composition” (Hykes Laboratories LLC, priority 2006, dated 2012)
